Laboratory results reported in PubChem BioAssay (NCI).
“And” between values parts separate entries of the source, which are not always exact repeats. Equal entries are not always repeated.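 How tested: cells in 96-well plates exposed to compound for 48 hours at five concentrations. The concentration for 50% growth inhibition is given as GI50. TGI is the concentration that stops growth completely.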

system: SW-620 colon; test: inhibition of tumour cell growth, NCI panel, 48 h

`Cc1cn(C2CC(ON3C(=O)c4ccccc4C3=O)C(CO)O2)c(=O)[nH]c1=O` (configuration not stated) and `CCC1c2[nH]c3ccccc3c2C[C@H]2C(=O)NC(COC(C)(C)C)C(=O)N12` (some centres not stated) cannot be ordered by TGI: > 10 µM for the first, > 100 µM for the second.

`C=CCn1c(=O)n(CC=C)c(=O)n(CC=C)c1=O` and `CCCCN1C=CN2c3nc4cc(C)c(C)cc4n3C(C(=O)OC)=C(C(=O)OC)C12` (configuration not stated) cannot be ordered by TGI: > 100 µM for the first, > 100 µM for the second.

`COC(=O)C(=C/c1ccc(OC)cc1)/C(C(=O)O)=C(/C)c1ccccc1` and `COc1ccc(C[N+]23C(CC[C@H]2c2ccccc2)CC[C@H]3c2ccccc2)cc1` (some centres not stated) cannot be ordered by TGI: > 100 µM for the first, > 100 µM for the second.

Going from `C=C1C(=O)O[C@H]2[C@H]1[C@@H](OC(=O)C=C(C)C)CC1=C[C@@H](C[C@@]3(C)O[C@@H]23)OC1=O` to `CC(=O)OCC1OC(Nc2ncc(-c3ccc(C)cc3)s2)C(OC(C)=O)C(OC(C)=O)C1OC(C)=O` (configuration not stated), the TGI rises from 2.77 µM to > 100 µM.

`CCOC(=O)CC1CCN(C(=O)c2ccccc2)C2Cc3c([nH]c4ccccc34)C12C[N+](=O)[O-]` (configuration not stated) and `C/C(=C1/CCCC2(N=NCC2c2ccccc2)C1=O)c1ccccc1` (configuration not stated) cannot be ordered by TGI: > 100 µM for the first, > 100 µM for the second.

`CC12CCC(C(=O)OC1=O)C2(C)C` (configuration not stated) and `CC1(C#N)CC(C)(C)C(/C=C2/CC(C)(C)C(/C=C3/OC(=N)CC3(C)C)=N2)=N1` (configuration not stated) cannot be ordered by TGI: > 100 µM for the first, > 100 µM for the second.

`CCOC(=O)C(N=Nc1ccc(S(N)(=O)=O)cc1)C(C)=O` (configuration not stated) and `CCOC(=O)CC1c2ccc(O)cc2OC(=O)C1c1ccc([N+](=O)[O-])cc1` (configuration not stated) cannot be ordered by TGI: > 100 µM for the first, > 100 µM for the second.

`Cc1ccc(C2CC(c3ccco3)=NN2c2ccccc2)o1` (configuration not stated) and `CC(C)CC1[C@@H](OCc2ccccc2)COS(=O)N1Cc1ccccc1` (some centres not stated) cannot be ordered by TGI: > 100 µM for the first, > 100 µM for the second.

Compared with `CCN1CCN(c2ccc(Nc3ccnc4ccc5nn(C)nc5c34)cc2)CC1`, `O=[N+]([O-])c1ccc(-n2nnc(C3=NCCCN3)c2-c2ccc(Cl)cc2)cc1` is higher in TGI: 19.7 µM for the first, > 100 µM for the second.

`OCC1OC(n2cnc3c2NC=NC[C@H]3O)C(O)C1O` (some centres not stated) and `COC1=C(Br)[C@H](O)[C@@]2(C=C1Br)CC(C(=O)NCCCCCN=C(N)N)=NO2` cannot be ordered by TGI: > 450 µM for the first, > 10 µM for the second.

`COc1cc2c(cc1OC)C(O)[C@H](Br)C(C)(C)O2` (some centres not stated) and `CCN(CC)/C(Cl)=C(Cl)\C(=C1\Nc2ccc(OC)cc21)[N+](=O)[O-]` cannot be ordered by TGI: > 100 µM for the first, > 100 µM for the second.

Going from `CCCCCC(C[N+]1(C)CCOCC1)C(=O)/C=C/c1ccccc1` (configuration not stated) to `O=C1c2cc3c(cc2CC12Cc1cc4c(cc1C2=O)CCC4)CCCC3` (configuration not stated), the TGI rises from 7.51 µM to > 100 µM.

system: RPMI-8226 leukemia; test: inhibition of tumour cell growth, NCI panel, 48 h

`Cc1ccc2c(c1CCCC(C)(C)O)C(=O)C(=O)C(C(C)C)=C2O` and `CCCCN1C=CN2c3nc4cc(C)c(C)cc4n3C(C(=O)OC)=C(C(=O)OC)C12` (configuration not stated) cannot be ordered by TGI: > 100 µM for the first, > 100 µM for the second.

Compared with `CC(=O)c1sc2c(c1OC(=O)c1cccs1)c(=O)n(-c1ccccc1)c(=S)n2-c1ccccc1`, `CC(=O)Oc1ccccc1-c1cc2ccccc2oc1=O` is higher in TGI: 20.3 µM for the first, > 100 µM for the second.

`CN(C)C(=O)NCCN1CCCCCc2ccccc21` and `C/C(=C1/CCCC2(N=NCC2c2ccccc2)C1=O)c1ccccc1` (configuration not stated) cannot be ordered by TGI: > 100 µM for the first, > 100 µM for the second.

First: O=C1C(Cl)C(c2ccccc2)N1n1cnc2ccccc2c1=O (configuration not stated)
Second: CC(C)CC1[C@@H](OCc2ccccc2)COS(=O)N1Cc1ccccc1 (some centres not stated)
The TGI of the first is higher: > 100 µM for the first, 51 µM for the second.

`CN(C)C(=O)OCOC(=O)N(C)C` and `CCOC(=O)C(N=Nc1ccc(S(N)(=O)=O)cc1)C(C)=O` (configuration not stated) cannot be ordered by TGI: > 100 µM for the first, > 100 µM for the second.

`COC(=O)c1ccc(/C=C2\N=C(C)OC2=O)cc1` and `CCOC(=O)C1=C(Nc2cccc(OC)c2)OCC1=O` cannot be ordered by TGI: > 100 µM for the first, > 100 µM for the second.

`CO[C@H]1[C@@H](O)[C@@H](C)O[C@@H](O[C@H]2CC[C@@]3(C)[C@H](CC[C@@H]4[C@@H]3CC[C@]3(C)[C@@H](C5=CC(=O)OC5)[C@@H](OC(C)=O)C[C@]43O)C2)[C@@H]1O` and `COc1ccc2c(c1)CC[C@@H]1[C@@H]2CC[C@]2(C)C(=O)/C(=C/c3ccc(OC)c(OC)c3)C[C@@H]12` cannot be ordered by TGI: > 16.2 µM for the first, > 100 µM for the second.

`C=CCn1c(=O)n(CC=C)c(=O)n(CC=C)c1=O` and `CCC1c2[nH]c3ccccc3c2C[C@H]2C(=O)NC(COC(C)(C)C)C(=O)N12` (some centres not stated) cannot be ordered by TGI: > 100 µM for the first, > 100 µM for the second.

`COC(=O)C(=C/c1ccc(OC)cc1)/C(C(=O)O)=C(/C)c1ccccc1` and `Cc1ccc(C2CC(c3ccco3)=NN2c2ccccc2)o1` (configuration not stated) cannot be ordered by TGI: > 100 µM for the first, > 100 µM for the second.

Going from `CC12CCC(C(=O)OC1=O)C2(C)C` (configuration not stated) to `CC1(C#N)CC(C)(C)C(/C=C2/CC(C)(C)C(/C=C3/OC(=N)CC3(C)C)=N2)=N1` (configuration not stated), the TGI falls from > 100 µM to 64 µM.

`CCN1CCN(c2ccc(Nc3ccnc4ccc5nn(C)nc5c34)cc2)CC1` and `O=[N+]([O-])c1ccc(-n2nnc(C3=NCCCN3)c2-c2ccc(Cl)cc2)cc1` cannot be ordered by TGI: > 100 µM for the first, > 100 µM for the second.

`OCC1OC(n2cnc3c2NC=NC[C@H]3O)C(O)C1O` (some centres not stated) and `COC1=C(Br)[C@H](O)[C@@]2(C=C1Br)CC(C(=O)NCCCCCN=C(N)N)=NO2` cannot be ordered by TGI: > 450 µM for the first, > 10 µM for the second.

Compared with `COc1cc2c(cc1OC)C(O)[C@H](Br)C(C)(C)O2` (some centres not stated), `CCCCCC(C[N+]1(C)CCOCC1)C(=O)/C=C/c1ccccc1` (configuration not stated) is lower in TGI: > 100 µM for the first, 8.59 µM for the second.

With `C=C1C(=O)O[C@H]2[C@H]1[C@@H](OC(=O)C=C(C)C)CC1=C[C@@H](C[C@@]3(C)O[C@@H]23)OC1=O` the GI50 was 0.81 µM and 2.61 µM.

With `C=C1C(=O)O[C@H]2[C@H]1[C@@H](OC(=O)C=C(C)C)CC1=C[C@@H](C[C@@]3(C)O[C@@H]23)OC1=O` the TGI was 67.2 µM and 7.16 µM.
